US10112918B2, “15-oxospiramilactone derivatives, preparation method and uses thereof” (Kunming Institute of Botany, The Chinese Academy of Sciences, priority 2013, dated 2018)
Read-outs that look alike come from different tables or passages of the source.

How the values were obtained:
Type in all cases: cell-based
[1] = test system: MCF-7 (human breast cancer cells); assay: MTT inhibition of tumor cell growth, MCF-7; conditions: Homo sapiens, MCF7, 48 h
Method: (§1) 1. Inoculating cells: the culture medium DMEM or RMPI1640 containing 10% fetal bovine serum was used to prepare a single cell suspension, and the cell suspension was inoculated to a 96-well plate at 5000-10000 cells per well (100 μl for each well); Adherent cells were inoculated and cultured for 12 h in advance. HL-60 (human promyelocytic leukemia cells), SMMC-7721 (human hepatoma cells), A-549 (Human lung adenocarcinoma cells), MCF-7 (human breast cancer cells), SW-480 (human colon cancer cells) were purchased from the Cell Bank of the Chinese Academy of Sciences, Shanghai.
(§2) 2. The solution of the compound to be tested (40 μM for primary screening; 5 concentrations were set for gradient re-screening for the compounds which achieve about 50% inhibition of tumor cell growth at 40 μM) was added, the final volume of each well was 200 μl, and triplicate wells were set for each test.
(§3) 3. Coloration: After culturing at 37° C. for 48 h, MTT solution (20 μl) was added to each well. After incubation for another 4 h, the culture was stopped. The supernatant in each well was pipetted and discarded, and 200 μl SDS solution (10%) was added to each well. Incubation was performed overnight (at 37° C.), to completely dissolve the crystal.
(§4) 4. Colorimetric assay: ELISA Reader (Bio-Rad 680) was used to obtain the light absorption for each well at a wavelength of 595 nm, the results were recorded. A cell growth curve was plotted with the concentration as abscissa and the cell survival percentage as ordinate. The two-point method (Reed and Muench method) was used to calculate the IC50 of the compound.

[2] = test system: SMMC-7721 (human hepatoma cells); assay: MTT inhibition of tumor cell growth, SMMC-7721; conditions: Homo sapiens, SMMC-7721, 48 h
Method: as §1, §2, §3, §4

[3] = test system: A-549 (Human lung adenocarcinoma cells); assay: MTT inhibition of tumor cell growth, A-549; conditions: Homo sapiens, A549, 48 h
Method: as §1, §2, §3, §4

[4] = test system: SW-480 (human colon cancer cells); assay: MTT inhibition of tumor cell growth, SW-480; conditions: Homo sapiens, SW480, 48 h
Method: as §1, §2, §3, §4

[5] = test system: Wnt signaling pathway (Top-Flash reporter gene); assay: Top-Flash Wnt reporter gene assay in HEK293T cells with Wnt3a conditioned medium; conditions: Homo sapiens, HEK-293T, 6 h, HEK293T, Wnt3a conditioned medium, 6 h
Method: HEK293T cells were cultured in DMEM containing 10% fetal bovine serum (Invitrogen) at 37° C., 5% CO2. The cells were passaged every other day. The density was retained at 70˜80% during passage. L cell line (CRL-2647, purchased from the gene bank of ATCC, the US) and the control cell line (CRL-2648, purchased from ATCC, US), which stably secreted mouse Wnt3a protein, were cultured in DMEM containing 50 ug/ml G418 and 10% fetal bovine serum, at 37° C., 5% CO2. When the cells grew to a density of about 70%, the medium was replaced with DMEM containing 10% fetal bovine serum. After continuous culture for 4 days, the culture was collected and centrifuged, and the supernatant was kept so that the Wnt conditioned medium was obtained. After titration assay, the conditioned medium was quick-frozen in liquid nitrogen, and placed at −80° C. for long-term storage, so that the titer was kept unchanged.
The cells were seeded to a 48-well plate at a density of […] cells per well, and transfected 20 h later. The reagents for plasmid transfection were calculated based on the amount in each well of the 48-well plate as following: the total amount of plasmid was 125 ng/well; the plasmid was first added to a serum-free medium (25 μL/well) and mixed well; PLUS reagent (Invitrogen) was then added in an amount of 0.5 μL/well and mixed well, then stood for 15 min; Lipofectamine (Invitrogen) liposome was added in an amount of 0.5 μL/well to serum-free DMEM medium (25 μL/well), and then mixed with the solution containing the plasmid and the PLUS, and stood for 15 min. The cells were cultured in serum-free DMEM medium (100 μL/well), and the final mixture of plasmid, PLUS and Lipofectamine were added to the cells. After incubation for 3 h, the transfection was stopped by the medium containing 10% fetal bovine serum (200 μL/well).
The HEK293T cells used for activity assay of the report gene were transfected by the method as shown in 2). Activity assay of Wnt reporter gene: the amount of plasmid for transfection was 5 ng/well for TOP-flash and 5 ng/well for GFP plasmid as internal standard, with lacZ added to reach a total amount of 125 ng/well. […] After treating for 6 h, Boehringer Mannheim Luci-ferase Assay Kit was used to lyse cells (200 μL/well). 50 μL from each well was pipetted into a 96-well plate. The indensity of GFP protein in the cell lysate was measured by fluorimeter FL600 (BIO-TEK Inc. Winooski, Vt.), and taken as internal standard for cell transfection efficiency. 10 μL substrate of luciferase was then added to each well, and the activity of luciferase was measured by Micro Lumate Plus (Perkin Elmer Inc. Wellesley, Mass.) luminometer. Finally, GFP indensity was used as internal standard to calibrate the activity of luciferase, i.e. the activity of Wnt reporter gene.
Calculation of IC50 (taking the calculation of IC50 of the Wnt signaling pathway for example): background (the activity as measured in the groups treated with a conditioned medium containing DMSO only) was subtracted from the reporter gene activity as measured in the groups treated by Wnt3a conditioned medium with or without the compound to be tested at different concentrations; and the obtained value was defined as the activity of the reporter gene induced by Wnt or the residual activity of the reporter gene after adding the compound to be tested. The residual activity was normalized by the activity induced by Wnt to get the relative residual activity. Then combine with the concentrations of the compound to be tested to plot a linear graph, and a dose-effect curve was fitted based on 4-parameter logistic fit. IC50 of the Wnt signaling pathway is determined as the concentration at which the relative residual activity is 0.5.

[6] = test system: HL-60 (human promyelocytic leukemia cells); assay: MTT inhibition of tumor cell growth, HL-60; conditions: Homo sapiens, HL-60, 48 h
Method: as §1, §2, §3, §4

[7] = Table 2, derivatives having potential Michael reaction acceptor
[8] = Table 2, derivatives having potential Michael reaction acceptor, read-out: IC50 SW-480
[9] = Table 9, read-out: IC50(μM), inhibitory activity on the Wnt signaling pathway
[10] = Table 1, 7-hydroxy derivatives of S-3
[11] = Table 1, 7-hydroxy derivatives of S-3, read-out: IC50 SW-480
[12] = Table 7 (second), derivatives modified on 7-hydroxyl of S-3, read-out: IC50 (μM), inhibitory activity on the Wnt signaling pathway
[13] = Table 5, derivatives having double Michael reaction acceptor
[14] = Table 5, derivatives having double Michael reaction acceptor, read-out: IC50 SW-480
[15] = Table 6, double Michael reaction acceptor derivatives, read-out: IC50 SW-480, derivatives having double Michael reaction acceptor

Structure (SMILES)	IC50 [1, 7] [µM]	IC50 [2, 7] [µM]	IC50 [3, 7] [µM]	IC50 [4, 8] [µM]	IC50 [5, 9] [µM]	IC50 [6, 7] [µM]	IC50 [1, 10] [µM]	IC50 [2, 10] [µM]	IC50 [3, 10] [µM]	IC50 [4, 11] [µM]	IC50 [5, 12] [µM]	IC50 [6, 10] [µM]	IC50 [1, 13] [µM]	IC50 [2, 13] [µM]	IC50 [3, 13] [µM]	IC50 [4, 14] [µM]	IC50 [4, 15] [µM]	IC50 [6, 13] [µM]
C=C1C(=O)[C@]23CC[C@H]1CC2[C@@]12CCC[C@@](C)(COC1=O)C2[C@H](SC)C3=O (stereo partly shown) [Compound 12]	4.83	2.41	3.14	3.71	19.8 ± 1.34	4.69	–	–	–	–	–	–	–	–	–	–	–	–
C=C1C(=O)[C@]23CC[C@H]1CC2[C@@]12CCC[C@@](C)(COC1=O)C2C[C@H]3S(=O)(=O)c1ccccc1[N+](=O)[O-] (stereo partly shown) [Compound 1u]	–	–	–	–	–	–	9.05	23.4	6.69	18.4	> 60	6.63	–	–	–	–	–	–
C=C1C(=O)[C@]23CC[C@H]1CC2[C@@]12CCC[C@@](C)(COC1=O)C2C[C@H]3OC(=O)CBr (stereo partly shown) [Compound 1d]	–	–	–	–	–	–	3.47	1.23	0.5	3	28.8 ± 0.56	1.05	–	–	–	–	–	–
C=C1C(=O)C23CC[C@@H](CC2[C@]2(COC(C)=O)CCC[C@@](C)(COC(=O)c4cccs4)C12)C(=C)C3=O (stereo partly shown) [Compound 67]	–	–	–	–	4.92 ± 0.69	–	–	–	–	–	–	–	0.15	0.13	0.14	0.1	0.13	0.24
C=C1C(=O)[C@]23CC[C@H]1CC2[C@@]12CCC[C@@](C)(COC1=O)C2=CC3=O (stereo partly shown) [Compound 15]	–	–	–	–	11.1 ± 0.63	–	–	–	–	–	–	–	1.44	0.8	0.91	1.21	–	0.8
C=C1C(=O)[C@@]23CC[C@@H](CC2[C@@]24CCC[C@@](C)(COC2)C14)C(=C)C3=O (stereo partly shown) [Compound 31]	8.86	4.44	6.11	5.43	7.1 ± 0.7	3.6	–	–	–	–	–	–	1.71	1.79	0.76	0.62	0.45	1.31
